Values quoted from earlier work in PubChem BioAssay AID1259409 (Chemical Carcinogenesis Research Information System (CCRIS), 2018).
“And” between values parts separate entries of the source, which are not always exact repeats. Equal entries are not always repeated.

Tested on: rodent chemically induced tumor inhibition, incidence and multiplicity
Test: CCRIS tumor inhibitor studies
Details: 3817-11-6, Dose [Inhibitor]: 0, Promoter: NONE USED

## CC[C@H](C)[C@@H](NC(=O)[C@@H](CCC(=O)O)NC(=O)[C@@H](CO)NC(=O)[C@@H](CO)NC(=O)[C@H](NC(=O)[C@@H](CC(=O)O)NC(=O)[C@H](NC(=O)[C@H](C)NC(=O)[C@H](C)NC(=O)[C@@H](CC(=O)O)NC(=O)[C@@H](CO)NC(=O)[C@H](N)CS)C(C)C)C(C)C)C(=O)N[C@@H](C(=O)N[C@@H](C(=O)N[C@H](CCCCN)C(=O)N[C@H](CC(=O)O)C(=O)N[C@H](CC(C)C)C(=O)N[C@H](CCCCN)C(=O)N[C@H](CCC(=O)O)C(=O)N[C@H](CCCCN)C(=O)N[C@H](CCCCN)C(=O)N[C@H](CCC(=O)O)C(=O)N[C@@H](C(=O)N[C@@H](C(=O)N[C@H](CCC(=O)O)C(=O)N[C@H](CCC(=O)O)C(=O)N[C@@H](C)C(=O)N[C@H](CCC(=O)O)C(=O)O)C(C)C)C(C)C)C(C)C)[C@H](C)O
Carcinogen: N-BUTYL-N-(4-HYDROXYBUTYL)NITROSAMINE, 30 UG THYMOSIN FRACTION 5 IN 100 µL SALINE INJECTED INTO RIGHT THIGH 2/WK FOR 20 WK (STUDY DURATION: 20 WK), Route [Inhibitor]: INTRAMUSCULAR, Species: MOUSE, Strain/Sex: C3H/HEJ/FEMALE, Target Tissue: Type of Lesion: BLADDER: CARCINOMA, Dose [Carcinogen]: 0.05% (W/V) SOLUTION IN DRINKING WATER WITH 0.001% (W/V) TWEEN 80 FOR 20 WK
  tumour outcome (control, treated, inhibition, significance): 6/11 (55%), 2/11 (18%), 67%, not significant
Carcinogen: N-BUTYL-N-(4-HYDROXYBUTYL)NITROSAMINE, 30 UG THYMOSIN FRACTION 5 IN 100 µL SALINE INJECTED INTO RIGHT THIGH 2/WK FOR 25 WK (STUDY DURATION: 25 WK), Route [Inhibitor]: INTRAMUSCULAR, Species: MOUSE, Strain/Sex: C3H/HEJ/FEMALE, Target Tissue: Type of Lesion: BLADDER: CARCINOMA, Dose [Carcinogen]: 0.05% (W/V) SOLUTION IN DRINKING WATER WITH 0.001% (W/V) TWEEN 80 FOR 25 WK
  tumour outcome (control, treated, inhibition, significance): 9/16 (56%), 8/13 (62%), -11%, not significant
Carcinogen: N-BUTYL-N-(4-HYDROXYBUTYL)NITROSAMINE, 600 UG THYMOSIN FRACTION 5 2/WK FOR 12 WK BEGINNING POST CARCINOGEN TREATMENT (STUDY DURATION: 20 WK), Route [Inhibitor]: SUBCUTANEOUS, Species: MOUSE, Strain/Sex: NON/SHI/MALE, Target Tissue: Type of Lesion: RENAL PELVIS: CARCINOMA, Dose [Carcinogen]: 0.05% IN DRINKING WATER FOR 8 WK
  tumour outcome (control, treated, inhibition, significance): 3/31 (10%), 5/32 (16%), -60%, not significant and 7/29 (24%), 7/29 (24%), 0%, not significant
Carcinogen: N-BUTYL-N-(4-HYDROXYBUTYL)NITROSAMINE, 600 UG THYMOSIN FRACTION 5 2/WK FOR 12 WK BEGINNING POST CARCINOGEN TREATMENT (STUDY DURATION: 20 WK), Route [Inhibitor]: SUBCUTANEOUS, Species: MOUSE, Strain/Sex: NON/SHI/MALE, Target Tissue: Type of Lesion: URINARY BLADDER: CARCINOMA, Dose [Carcinogen]: 0.05% IN DRINKING WATER FOR 8 WK
  tumour outcome (control, treated, inhibition, significance): 25/31 (81%), 15/32 (47%), 42%, p<0.01 and 19/29 (66%), 23/29 (79%), -20%, not significant
Carcinogen: N-BUTYL-N-(4-HYDROXYBUTYL)NITROSAMINE, 600 UG THYMOSIN FRACTION 5 IN 100 µL SALINE INJECTED INTO RIGHT THIGH 2/WK FOR 30 WK (STUDY DURATION: 30 WK), Route [Inhibitor]: INTRAMUSCULAR, Species: RAT, Strain/Sex: WISTAR/FEMALE, Target Tissue: Type of Lesion: BLADDER: CARCINOMA, Dose [Carcinogen]: 0.025% (W/V) SOLUTION IN DRINKING WATER WITH 0.0005% (W/V) TWEEN 80 FOR 30 WK
  tumour outcome (control, treated, inhibition, significance): 9/11 (82%), 2/11 (18%), 78%, p<0.05
Carcinogen: PHENACETIN, 62-44-2, N-BUTYL-N-(4-HYDROXYBUTYL)NITROSAMINE, Carcinogen: PHENACETIN, 62-44-2, N-BUTYL-N-(4-HYDROXYBUTYL)NITROSAMINE, 60 UG IN 0.1 ML SALINE 2/WK FOR 6 WK CONCURRENTLY WITH BBN TREATMENT (STUDY DURATION: 30 WK), Route [Inhibitor]: SUBCUTANEOUS, Species: MOUSE, Strain/Sex: NON/SHI/MALE, Target Tissue: Type of Lesion: RENAL PELVIS: CARCINOMA, Dose [Carcinogen]: 2% PHENACETIN IN DIET FOR 8 WK FOLLOWED BY 0.05% BBN IN DRINKING WATER FOR 6 WK
  tumour outcome (control, treated, inhibition, significance): 2/11 (18%), 5/11 (45%), -150%, not significant
Carcinogen: PHENACETIN, 62-44-2, N-BUTYL-N-(4-HYDROXYBUTYL)NITROSAMINE, Carcinogen: PHENACETIN, 62-44-2, N-BUTYL-N-(4-HYDROXYBUTYL)NITROSAMINE, 60 UG IN 0.1 ML SALINE 2/WK FOR 6 WK CONCURRENTLY WITH BBN TREATMENT (STUDY DURATION: 30 WK), Route [Inhibitor]: SUBCUTANEOUS, Species: MOUSE, Strain/Sex: NON/SHI/MALE, Target Tissue: Type of Lesion: URINARY BLADDER: CARCINOMA, Dose [Carcinogen]: 2% PHENACETIN IN DIET FOR 8 WK FOLLOWED BY 0.05% BBN IN DRINKING WATER FOR 6 WK
  tumour outcome (control, treated, inhibition, significance): 2/11 (18%), 2/11 (18%), 0%, not significant
Carcinogen: PHENACETIN, 62-44-2, N-BUTYL-N-(4-HYDROXYBUTYL)NITROSAMINE, Carcinogen: PHENACETIN, 62-44-2, N-BUTYL-N-(4-HYDROXYBUTYL)NITROSAMINE, 60 UG IN 0.1 ML SALINE 2/WK FOR 6 WK CONCURRENTLY WITH BBN TREATMENT (STUDY DURATION: 34 WK), Route [Inhibitor]: SUBCUTANEOUS, Species: MOUSE, Strain/Sex: NON/SHI/MALE, Target Tissue: Type of Lesion: RENAL PELVIS: CARCINOMA, Dose [Carcinogen]: 2% PHENACETIN IN DIET FOR 12 WK FOLLOWED BY 0.05% BBN IN DRINKING WATER FOR 6 WK
  tumour outcome (control, treated, inhibition, significance): 9/20 (45%), 12/19 (63%), -40%, not significant
